Measurements reported in ChEMBL document CHEMBL1133946, “An approach to the identification of potent inhibitors of influenza virus fusion using parallel synthesis methodology” (Bioorg Med Chem Lett, 2001).
≈ marks a conversion by molar mass, not a printed value.

Key:
[1] = system: unidentified influenza virus; assay: Cytotoxicity of compound was measured against Influenza virus; format: functional
[2] = system: unidentified influenza virus; assay: Compound tested for inhibition of influenza virus infectivity in cell culture determined by plaque reduction assay; format: functional, organism-based
[3] = Compound tested for inhibition of hemolysis; format: functional
[4] = system: unidentified influenza virus; assay: Cytotoxicity of compound was measured against Influenza virus;in range of 8-9; format: functional
[5] = system: unidentified influenza virus; assay: Compound tested for inhibition of influenza virus infectivity in cell culture determined by plaque reduction assay;Inactive; format: functional, organism-based
[6] = unidentified influenza virus, read-out: CC50
[7] = unidentified influenza virus, read-out: EC50

| Compound | CC50 [1, 6] [µg/mL] | EC50 [2, 7] [µg/mL] | IC50 [3] [µg/mL] | CC50 [1] [µg/mL] | EC50 [2] [µg/mL] | CC50 [4] [µg/mL] | EC50 [5] |
| --- | --- | --- | --- | --- | --- | --- | --- |
| Cc1ccc(O)c(C(=O)NC[C@@]2(C)C[C@H](O)CC(C)(C)C2)c1 | 70 (≈ 229 µM) | 0.037 (≈ 0.121 µM) | 0.033 (≈ 0.108 µM) |  |  |  |  |
| CC1(C)C[C@H](O)C[C@@](C)(CNC(=O)c2cc(Cl)ccc2O)C1 (stereo in doubt; 10b) |  |  | 0.25 (≈ 0.767 µM) | >100 | 0.13 (≈ 0.399 µM) |  |  |
| CC1(C)C[C@H](O)C[C@@](C)(CNC(=O)c2cc(Cl)ccc2O)C1 (stereo in doubt; 11b) | 80 (≈ 246 µM) |  | 0.025 (≈ 0.0767 µM) |  | 0.03 (≈ 0.0921 µM) |  |  |
| Cc1ccc(O)c(C(=O)NC[C@]2(C)C[C@H](O)CC(C)(C)C2)c1 | 50 (≈ 164 µM) | 0.136 (≈ 0.445 µM) | 0.15 (≈ 0.491 µM) |  |  |  |  |
| C[C@@H]1CCC[C@@H]2C[C@@H](NC(=O)c3cc(Cl)c(N)cc3O)CCN21 | > 100 | 2 (≈ 5.92 µM) | 0.44 (≈ 1.3 µM) |  |  |  |  |
| CC1(C)C[C@H](O)C[C@@](C)(CNC(=S)c2cccc(Cl)c2)C1 | 20 (≈ 61.4 µM) | 0.02 (≈ 0.0614 µM) | 0.047 (≈ 0.144 µM) |  |  |  |  |
| CC1(C)C[C@H](O)C[C@](C)(C/N=C(\S)c2cccc(Cl)c2)C1 |  |  | 2.5 (≈ 7.67 µM) |  |  | 8 (≈ 24.5 µM) | Not Active |
